# Measured values taken from patent US20080045506A1 (GLAXO GROUP LIMITED, priority 2004, published 2008).
# Counter-ions that a name gives are not always drawn.
# Biological target: T1, histamine H3 receptor (Homo sapiens, UniProt Q9Y5N1)
# T1 construct: expressed in transfected cells; host or cells: CHO K1 cells (pSwitch/pGene GeneSwitch system, mifepristone-induced), clone 3H3; membranes
# Test: Histamine H3 functional antagonist assay (method B)
# Type: biochemical
# Details: [35S]-GTPγS SPA, membrane prepared from cultured H3 cells, histamine at EC80, averages of a number of experiments, read-out: functional pKi (fpKi), antagonism (converted)
# Text: A membrane preparation containing histamine H3 receptors may be prepared in accordance with the following procedures:
# (i) Generation of Histamine H3 Cell Line
# DNA encoding the human histamine H3 gene (Huvar, A. et al. (1999) Mol. Pharmacol. 55(6), 1101-1107) was cloned into a holding vector, pcDNA3.1 TOPO (InVitrogen) and its cDNA was isolated from this vector by restriction digestion of plasmid DNA with the enzymes BamH1 and Not-1 and ligated into the inducible expression vector pGene (InVitrogen) digested with the same enzymes. The GeneSwitch™ system (a system where in transgene expression is switched off in the absence of an inducer and switched on in the presence of an inducer) was performed as described in U.S. Pat. Nos. 5,364,791; 5,874,534; and 5,935,934. Ligated DNA was transformed into competent DH5α E. coli host bacterial cells and plated onto Luria Broth (LB) agar containing Zeocin™ (an antibiotic which allows the selection of cells expressing the sh ble gene which is present on pGene and pSwitch) at 50 μg ml^−1. Colonies containing the re-ligated plasmid were identified by restriction analysis. DNA for transfection into mammalian cells was prepared from 250 ml cultures of the host bacterium containing the pGeneH3 plasmid and isolated using a DNA preparation kit (Qiagen Midi-Prep) as per manufacturers guidelines (Qiagen).
# CHO K1 cells previously transfected with the pSwitch regulatory plasmid (InVitrogen) were seeded at 2×10e6 cells per T75 flask in Complete Medium, containing Hams F12 (GIBCOBRL, Life Technologies) medium supplemented with 10% v/v dialysed foetal bovine serum, L-glutamine, and hygromycin (100 μg ml^−1), 24 hours prior to use. Plasmid DNA was transfected into the cells using Lipofectamine plus according to the manufacturers guidelines (InVitrogen). 48 hours post transfection cells were placed into complete medium supplemented with 500 μg ml^−1 Zeocin™.
# 10-14 days post selection 10 nM Mifepristone (InVitrogen), was added to the culture medium to induce the expression of the receptor. 18 hours post induction cells were detached from the flask using ethylenediamine tetra-acetic acid (EDTA; 1:5000; InVitrogen), following several washes with phosphate buffered saline pH 7.4 and resuspended in Sorting Medium containing Minimum Essential Medium (MEM), without phenol red, and supplemented with Earles salts and 3% Foetal Clone II (Hyclone). Approximately 1×10e7 cells were examined for receptor expression by staining with a rabbit polyclonal antibody, 4a, raised against the N-terminal domain of the histamine H3 receptor, incubated on ice for 60 minutes, followed by two washes in sorting medium. Receptor bound antibody was detected by incubation of the cells for 60 minutes on ice with a goat anti rabbit antibody, conjugated with Alexa 488 fluorescence marker (Molecular Probes). Following two further washes with Sorting Medium, cells were filtered through a 50 μm Filcon™ (BD Biosciences) and then analysed on a FACS Vantage SE Flow Cytometer fitted with an Automatic Cell Deposition Unit. Control cells were non-induced cells treated in a similar manner. Positively stained cells were sorted as single cells into 96-well plates, containing Complete Medium containing 500 μg ml^−1 Zeocin™ and allowed to expand before reanalysis for receptor expression via antibody and ligand binding studies. One clone, 3H3, was selected for membrane preparation.
# (ii) Membrane Preparation from Cultured Cells
# All steps of the protocol are carried out at 4° C. and with pre-cooled reagents. The cell pellet is resuspended in 10 volumes of homogenisation buffer (50 mM N-2-hydroxyethylpiperazine-N′-2-ethanesulfonic acid (HEPES), 1 mM ethylenediamine tetra-acetic acid (EDTA), pH 7.4 with KOH, supplemented with 10e-6M leupeptin (acetyl-leucyl-leucyl-arginal; Sigma L2884), 25 μg/ml bacitracin (Sigma B0125), 1 mM phenylmethylsulfonyl fluoride (PMSF) and 2×10e-6M pepstain A (Sigma)). […]
# T1 sequence (Q9Y5N1 whole entry): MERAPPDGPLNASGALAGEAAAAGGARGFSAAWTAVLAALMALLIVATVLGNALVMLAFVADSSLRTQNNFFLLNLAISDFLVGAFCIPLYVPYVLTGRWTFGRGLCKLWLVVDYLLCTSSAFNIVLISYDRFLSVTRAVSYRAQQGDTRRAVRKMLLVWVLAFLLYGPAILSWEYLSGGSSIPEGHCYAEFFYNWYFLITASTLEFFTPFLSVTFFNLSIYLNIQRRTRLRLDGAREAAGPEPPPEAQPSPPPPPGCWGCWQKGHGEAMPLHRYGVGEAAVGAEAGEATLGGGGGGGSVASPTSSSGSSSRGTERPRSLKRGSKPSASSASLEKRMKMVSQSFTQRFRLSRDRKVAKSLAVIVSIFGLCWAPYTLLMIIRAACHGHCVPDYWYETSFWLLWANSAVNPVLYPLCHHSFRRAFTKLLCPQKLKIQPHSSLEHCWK
row,Ki,Structure (SMILES)
1,≤ 0.316 nM,"Cc1noc(-c2ccc(N3CC[C@H](C(=O)N4CCN(C5CCC5)CC4)C3)cc2)n1 [Example E13, 1-Cyclobutyl-4-({(3S)-1-[4-(3-methyl-1,2,4-oxadiazol-5-yl)phenyl]-3-pyrrolidinyl}carbonyl)piperazine]"
2,≤ 0.316 nM,"CCC(CC)N1CCN(C(=O)[C@H]2CCN(c3ccc(-c4nc(C)no4)cc3)C2)CC1 [Example E9, 1-(1-Ethylpropyl)-4-({(3S)-1-[4-(3-methyl-1,2,4-oxadiazol-5-yl)phenyl]-3-pyrrolidinyl}carbonyl)piperazine]"
3,≤ 0.316 nM,"Cc1noc(-c2ccc(N3CCC(C(=O)N4CCCN(C5CCC5)CC4)C3)c(F)c2)n1 (racemic) [Example E20, (R,S)-1-Cyclobutyl-4-({1-[2-fluoro-4-(3-methyl-1,2,4-oxadiazol-5-yl)phenyl]-3-pyrrolidinyl}carbonyl)hexahydro-1H-1,4-diazepine]"
4,≤ 0.316 nM,"CC(=O)c1ccc(N2CCC(C(=O)N3CCCN(C4CCC4)CC3)C2)cc1 (racemic) [Example E21, (R,S)-1-(4-{3-[(4-Cyclobutylhexahydro-1H-1,4-diazepin-1-yl)carbonyl]-1-pyrrolidinyl}phenyl)ethanone]"
5,≤ 0.316 nM,"Cc1noc(-c2ccc(N3CC[C@@H](C(=O)N4CCCN(C5CCC5)CC4)C3)cc2)n1 (single isomer, unassigned) [Example E18A, hydrochloride]"
6,≤ 0.316 nM,"Cc1nnc(-c2ccc(N3CC[C@H](C(=O)N4CCCN(C(C)C)CC4)C3)cc2)o1 [Example E47, 1-(1-Methylethyl)-4-({(3S)-1-[4-(5-methyl-1,3,4-oxadiazol-2-yl)phenyl]-3-pyrrolidinyl}carbonyl)hexahydro-1H-1,4-diazepine hydrochloride]"
7,≤ 0.316 nM,"Cc1nc(-c2ccc(N3CC[C@H](C(=O)N4CCN(C(C)C)CC4)C3)cc2)co1 [Example E32A, 1-(1-Methylethyl)-4-({(3S)-1-[4-(2-methyl-1,3-oxazol-4-yl)phenyl]-3-pyrrolidinyl}carbonyl)piperazine]"
8,≤ 0.316 nM,"Cc1noc(-c2ccc(N3CCC(C(=O)N4CCCN(C5CCC5)CC4)C3)cc2)n1 (racemic) [Example E18, (R,S)-1-Cyclobutyl-4-({1-[4-(3-methyl-1,2,4-oxadiazol-5-yl)phenyl]-3-pyrrolidinyl}carbonyl)hexahydro-1H-1,4-diazepine]"
9,≤ 0.316 nM,"Cc1nnc(-c2ccc(N3CC[C@H](C(=O)N4CCN(C(C)C)CC4)C3)cc2)o1 [Example E30, 1-(1-Methylethyl)-4-({(3S)-1-[4-(5-methyl-1,3,4-oxadiazol-2-yl)phenyl]-3-pyrrolidinyl}carbonyl)piperazine]"
10,≤ 0.316 nM,"Cc1cn(-c2ccc(N3CC[C@H](C(=O)N4CCN(C(C)C)CC4)C3)cc2)cn1 [Example E55, 1-(1-Methylethyl)-4-({(3S)-1-[4-(4-methyl-1H-imidazol-1-yl)phenyl]-3-pyrrolidinyl}carbonyl)piperazine dihydrochloride]"
11,< 10 nM,"Cc1ccc2cc(N3CCC(C(=O)N4CCCN(C5CCC5)CC4)C3)ccc2n1 (racemic) [Example E19, (R,S)-6-{3-[(4-Cyclobutylhexahydro-1H-1,4-diazepin-1-yl)carbonyl]-1-pyrrolidinyl}-2-methylquinoline]"
12,≤ 0.316 nM,"CCc1noc(-c2ccc(N3CC[C@H](C(=O)N4CCN(C(C)C)CC4)C3)cc2)n1 [Example E49, 1-({(3S)-1-[4-(3-Ethyl-1,2,4-oxadiazol-5-yl)phenyl]-3-pyrrolidinyl}carbonyl)-4-(1-methylethyl)piperazine hydrochloride]"
13,≤ 0.316 nM,"CC(C)N1CCN(C(=O)[C@H]2CCN(c3ccc(C#N)cc3)C2)CC1 [Example E36, 4-((3S)-3-{[4-(1-Methylethyl)-1-piperazinyl]carbonyl}-1-pyrrolidinyl)benzonitrile hydrochloride]"
14,≤ 0.316 nM,"CC(C)N1CCN(C(=O)[C@H]2CCN(c3ccc(-c4nnc(-c5ccccc5)o4)cc3)C2)CC1 [Example E40, 1-(1-Methylethyl)-4-({(3S)-1-[4-(5-phenyl-1,3,4-oxadiazol-2-yl)phenyl]-3-pyrrolidinyl}carbonyl)piperazine]"
15,≤ 0.316 nM,"Cc1noc(-c2ccc(N3CC[C@H](C(=O)N4CCN(C5CCC5)CC4)C3)cc2F)n1 [Example E52, 1-Cyclobutyl-4-({(3S)-1-[3-fluoro-4-(3-methyl-1,2,4-oxadiazol-5-yl)phenyl]-3-pyrrolidinyl}carbonyl)piperazine hydrochloride]"
16,≤ 0.316 nM,"Cc1noc(-c2ccc(N3CC[C@H](C(=O)N4CCN(C(C)C)CC4)C3)cc2)n1 [Example E3, 1-(1-Methylethyl)-4-({(3S)-1-[4-(3-methyl-1,2,4-oxadiazol-5-yl)phenyl]-3-pyrrolidinyl}carbonyl)piperazine]"
17,≤ 0.316 nM,"Cc1noc(-c2ccc(N3CC[C@H](C(=O)N4CCN(C(C)C)CC4)C3)cc2F)n1 [Example E24, 1-({(3S)-1-[3-Fluoro-4-(3-methyl-1,2,4-oxadiazol-5-yl)phenyl]-3-pyrrolidinyl}carbonyl)-4-(1-methylethyl)piperazine]"
18,< 10 nM,"Cc1ccc2cc(N3CC[C@@H](C(=O)N4CCCN(C5CCC5)CC4)C3)ccc2n1 (single isomer, unassigned) [Example E19A, hydrochloride]"
19,≤ 0.316 nM,"CC(C)N1CCN(C(=O)[C@H]2CCN(c3ccc(-n4ccnc4)cc3)C2)CC1 [Example E43, 1-({(3S)-1-[4-(1H-imidazol-1-yl)phenyl]-3-pyrrolidinyl}carbonyl)-4-(1-methylethyl)piperazine]"
20,≤ 0.316 nM,"Cc1noc(-c2ccc(N3CC[C@H](C(=O)N4CCCN(C(C)C)CC4)C3)cc2F)n1 [Example E29, 1-({(3S)-1-[3-Fluoro-4-(3-methyl-1,2,4-oxadiazol-5-yl)phenyl]-3-pyrrolidinyl}carbonyl)-4-(1-methylethyl)hexahydro-1H-1,4-diazepine hydrochloride]"
21,≤ 0.316 nM,"Cc1noc(-c2ccc(N3CC[C@H](C(=O)N4CCCN(C(C)C)CC4)C3)cc2)n1 [Example E28, 1-(1-Methylethyl)-4-({(3S)-1-[4-(3-methyl-1,2,4-oxadiazol-5-yl)phenyl]-3-pyrrolidinyl}carbonyl)hexahydro-1H-1,4-diazepine]"
22,≤ 0.316 nM,"Cc1ccc2cc(N3CC[C@H](C(=O)N4CCCN(C5CCC5)CC4)C3)ccc2n1 (single isomer, unassigned) [Example E19B, hydrochloride]"
23,< 10 nM,"CC(=O)c1ccc(N2CC[C@@H](C(=O)N3CCCN(C4CCC4)CC3)C2)cc1 (single isomer, unassigned) [Example E21A, hydrochloride]"
24,≤ 0.316 nM,"CC(C)N1CCN(C(=O)[C@H]2CCN(c3ccc(-c4ccno4)cc3)C2)CC1 [Example E41, 1-({(3S)-1-[4-(5-isoxazolyl)phenyl]-3-pyrrolidinyl}carbonyl)-4-(1-methylethyl)piperazine]"
25,≤ 0.316 nM,"CC(=O)c1ccc(N2CC[C@H](C(=O)N3CCCN(C4CCC4)CC3)C2)cc1 (single isomer, unassigned) [Example E21B, hydrochloride]"
26,≤ 0.316 nM,"Cc1noc(-c2ccc(N3CC[C@H](C(=O)N4CCN(C(C)C)CC4)C3)cn2)n1 [Example E54, 1-(1-Methylethyl)-4-({(3S)-1-[6-(3-methyl-1,2,4-oxadiazol-5-yl)-3-pyridinyl]-3-pyrrolidinyl}carbonyl)piperazine hydrochloride]"
27,≤ 0.316 nM,"CC(=O)c1ccc(N2CC[C@H](C(=O)N3CCN(C(C)C)CC3)C2)cc1 [Example E2, 1-[4-((3S)-3-{[4-(1-Methylethyl)-1-piperazinyl]carbonyl}-1-pyrrolidinyl)phenyl]ethanone]"

row,Structure (SMILES),Ki
1,"Cc1noc(-c2ccc(N3CC[C@H](C(=O)N4CCCN(CC5CC5)CC4)C3)cn2)n1 [Example E58, hydrochloride]",≤ 0.316 nM
